Reference: patent US20250049757A1, “COMBINATORY THERAPY FOR CANCER USING BIPHENYL COMPOUND AND IMMUNE CHECKPOINT MOLECULE REGULATOR” (Taiho Pharmaceutical Co. Ltd., priority 2021, published 2025)

Tests used:
Type in all cases: in vivo
[1] = test system: mouse colon cancer cell strain MC38; experiment: Flow cytometric analysis of tumor infiltrating leucocytes in MC38 transplanted mice (Example 1); details: Day 7, tumor infiltrating leucocytes, Compound A 25 mg/kg/day po 6 days, Dunnett test
Method: The mouse colon cancer cell strain MC38 was obtained from Dr. Yoshihiro Hayakawa (University of Toyama, Toyama, Japan). The MC38 cell strain was subjected to culture in an RPMI 1640 medium containing 10% fetal bovine serum and then to subculture in an incubator at 37° C. in the presence of 5% CO2 at a frequency of once or twice a week.
The MC38 cell suspension was transplanted subcutaneously at 1.5×10^6 cells/0.1 ml to the right chest of 6-week-old C57BL/6JJcl mice (CLEA Japan, Inc.).
The tumor was grown until reaching a tumor volume (TV) of 80 to 230 mm^3 after the transplantation. Degimatic Caliper was used for tumor diameter measurement. The major diameter and the minor diameter of the tumor were measured, and TV was calculated from the following equation.
(§1) TV (mm^3)=major diameter (mm)×minor diameter (mm)×minor diameter (mm)/2
By a stratified random allocation method using TV as an index, 5 animals were allocated to each group. The day when grouping (n=5) was performed was defined as Day 0. […]
For detecting expression of immunity-related factors, flow cytometric analysis was performed for immunological monitoring. […] Thereafter, the isolated lymphocytes were stained with antibodies below, and then, analyzed using Flow Cytometer FACSVerse (BD Bioscience). […]

[2] = test system: mouse colon cancer cell line MC38; experiment: Antitumor effect in MC38 transplanted wild type (immune proficient) C57BL/6JJcl mice (Example 2)
Method: (§2) The MC38 cell suspension was transplanted subcutaneously at 2.0×10^6 cells/0.1 ml to the right chest of 6-week-old C57BL/6JJcl mice (CLEA Japan, Inc.) or CB17/Icr-Prkdc[scid]/CrlCrlj (Charles River Laboratories Japan Inc.). CB17/Icr-Prkdc[scid]/CrlCrlj mice are mice with immune deficiency due to lack of Tcells and B-cells in the peripheral blood.
(§3) The tumor was grown until reaching a TV of 50 to 300 mm^3 after the transplantation. Degimatic Caliper was used for tumor diameter measurement. The major diameter and the minor diameter of the tumor were measured, and TV was calculated from the following equation.
as §1
(§4) By a stratified random allocation method using TV as an index, ten C57BL/6JJcl mice were allocated to each group, and five CB17/Icr-Prkdc [scid]/CrlCrlj mice were allocated to each group. The day when grouping was performed was defined as Day 0. An electronic balance for animals was used for body weight measurement. The body weight change ratio on the nth day (BWCn) was calculated from the body weight on the nth day (BWn) in accordance with the following equation.
(§5) Body weight change ratio BWCn (%)=(BWn−BW0)/BW0×100
(§6) An appropriate amount of water for injection described in the Japanese Pharmacopeia was added for adjusting hypromellose concentration to 0.5 w/v %, and the mixture was then stirred with a stirrer to completely dissolve hypromellose, to prepare a 0.5% aqueous hypromellose solution. Benzoic acid salt of Compound A was ground with an agate mortar, and then suspended to a predetermined concentration with the 0.5% aqueous hypromellose solution, and ultrasonic treatment was performed to obtain a homogeneous suspension. The suspension containing Compound A was orally administered once a day for 21 consecutive days at a dose of 25 mg/kg/day. The dosage is indicated based on the free form of the Compound A.

[3] = test system: mouse colon cancer cell line MC38; experiment: Antitumor effect in MC38 transplanted immune deficient CB17/Icr-Prkdc[scid]/CrlCrlj mice (Example 2)
Method: as §2, §3, §1, §4, §5, §6

[4] = test system: mouse colon cancer cell line MC38; experiment: Combination of Compound A and anti-mouse PD-1 antibody in MC38 transplanted wild type C57BL/6JJcl mice (Example 3); details: Aspin-Welch's t-test
Method: The MC38 cell suspension was transplanted subcutaneously at 2.0×10^6 cells/0.1 ml to the right chest of 6-week-old C57BL/6JJcl mice (CLEA Japan, Inc.).
as §3, §1
By a stratified random allocation method using TV as an index, 10 mice were allocated to each group. The day when grouping was performed was defined as Day 0.
An electronic balance for animals was used for body weight measurement. The body weight change ratio on the nth day (BWCn) was calculated from the body weight on the nth day (BWn) in accordance with the following equation.
as §5
An appropriate amount of water for injection described in the Japanese Pharmacopeia was added for adjusting hypromellose concentration to 0.5 w/v %, and the mixture was then stirred with a stirrer to completely dissolve hypromellose, to prepare a 0.5% aqueous hypromellose solution.
On the first day of administration (day 1), the diluted product was intraperitoneally administered with the dose of 0.05 mg/body of the anti-mouse PD-1 antibody.

[5] = wild type C57BL/6JJcl mice, 25.0 mg/kg/day qd Day 1-21 po
[6] = immune deficient CB17/Icr-Prkdc[scid]/CrlCrlj mice, 25.0 mg/kg/day qd Day 1-21 po

## CC(C)(O)Cc1ccc(-c2ccc(C(=O)N3CC[C@H](N)C3)cc2-c2ccc(C#N)c(F)c2)c(F)c1 [Compound A, 4-[5-[(3S)-3-aminopyrrolidine-1-carbonyl]-2-[2-fluoro-4-(2-hydroxy-2-methyl-propyl)phenyl]phenyl]-2-fluoro-benzonitrile]
[1]
  ratio of gMDSC (CD45 positive, CD90.2 negative, CD11b positive, Ly6G positive cells) in leucocytes as compared to the control group: significantly lower
[2]; [5]
  Body weight change Day 22 Mean ± SE: 2.6 ± 1.2%
  Tumor volume Day 22 Mean ± SE: 969.3 ± 114.7 mm^3
[2]; wild type mice, Aspin-Welch's t-test
  antitumor effect: TV on Day 22 as compared to the control group: significantly lower TV
[3]; [6]
  Body weight change Day 22 Mean ± SE: 9.2 ± 4.2%
  Tumor volume Day 22 Mean ± SE: 2431.6 ± 359.7 mm^3
[3]; immune deficient mice, Aspin-Welch's t-test
  antitumor effect: TV on Day 22 as compared to the control group: didn't exhibit any antitumor effect
[4]
  antitumor effect: TV on Day 22 as compared to the control group: significantly lower TV
